The values below come from patent publication US4374284A, “Antiulcer, antiinflammatory, and antiallergic agent comprising as the main ingredient olean-12-ene-3β, 30-diol which is devoid of side effects of glycyrrhetinic acid and a new process for preparation of olean-12-ene-3β, 30-diol” (Minophagen Pharmaceutical Company, priority 1980, dated 1983).

The subject of data set [1] is ulcers induced by acetic acid. Put plainly: experiments with rats on ulcers induced by acetic acid (chronic gastric ulcers). The class given is in vivo. As to conditions: for ulcer value (major axis × minor axis): p.o., 14 days. Here is the method: (c) Experiments with rats on ulcers induced by acetic acid
Chronic gastric ulcers were induced by penetrating 100% acetic acid serosally into gastric wall for 60 sec. using a small cup (6 mm in diameter, 5 mm in height).
From the next day, compounds to be tested were administered orally twice a day (morning and evening) for 14 days. Autopsies were carried out 15 days after the administrations.

The subject of data set [2] is Arthus phenomenon (type III allergy). Put plainly: Arthus phenomenon test (type III allergy). The class given is in vivo, female guinea pig. As for the experimental part:
(b) Arthus phenomenon test (type III allergy)
To the back part of female guinea pig weighing 250-300 g, 10 mg/kg of egg albumin was administered subcutaneously. After 21 days, 2 mg/kg of egg albumin was administered intravenously, whereby death of the guinea pig due to anaphylactic shock was recognized to confirm establishment of sensitization. Thirty minutes after compounds to be tested were administered intraperitoneally, 0, 10, 100, 1000 μg/0.1 ml of egg albumin were each administered to the abdominal part which had been shaved.

The target in data set [3] is T1, Δ^4 -5β-reductase for aldosterone in rat liver (Rattus norvegicus, UniProt P31210).
T1 construct: centrifuged again at 105,000 g to obtain Δ^4 -5β-reductase as the supernatant; from tissue; host or cells: rat liver, 105,000 g supernatant (cytosol)
T1 sequence (P31210 1-326): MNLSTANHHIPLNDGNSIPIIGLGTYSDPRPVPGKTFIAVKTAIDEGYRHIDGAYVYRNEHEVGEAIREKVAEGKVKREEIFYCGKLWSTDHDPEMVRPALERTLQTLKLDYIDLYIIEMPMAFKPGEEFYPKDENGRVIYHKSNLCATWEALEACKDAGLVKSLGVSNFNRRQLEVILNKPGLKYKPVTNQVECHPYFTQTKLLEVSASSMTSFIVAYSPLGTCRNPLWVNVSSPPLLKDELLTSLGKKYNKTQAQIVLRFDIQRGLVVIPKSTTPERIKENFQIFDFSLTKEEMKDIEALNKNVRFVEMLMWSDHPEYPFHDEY
The experiment in a line: inhibitory action on Δ^4-5β-reductase for aldosterone. It is filed as biochemical. As to conditions: summary in words, liver reductase. As for the experimental part:
(§1) In vitro experimental results regarding effects of glycyrrhetinic acid (II) and its modified compounds (III), (IV), and (I) on Δ^4 -5α and 5β-reductase for aldosterone in rat liver will be shown below.
(§2) Assay for activity of Δ^4 -5α and 5β-reductase
(§3) (1) Preparation of enzyme solutions
(§4) Rat livers were perfused with saline and excised to prepare a 25% or 50% homogenate with a solution of 0.25 M sucrose and 1 mM EDTA. The homogenate was spun at 10,000 g for 20 minutes to separate supernatant, which was centrifuged again at 105,000 g to obtain Δ^4 -5β-reductase as the supernatant. The pellet was appropriately diluted with a solution of 0.25 M sucrose-1 mM EDTA to use as a 5α-reductase solution.
(§5) (2) Conditions for incubation and assay
(§6) 1 Aldosterone . . . 0.173 μM/0.05 ml ethanol solution
(§7) 2 Glycyrrhetinic acid or its modified compounds . . . 0.173 μM/0.05 ml ethanol solution Control . . . 0.05 ml ethanol solution
(§8) 5α-reductase solution 0.1 ml
(§9) 5β-reductase solution 0.1 ml or 0.2 ml
(§10) 5 Phosphate buffer (0.1 M, pH 7.2) 1 ml
(§11) The components 1 , 2 , 3 , 4 , 5 , and 6 mentioned above were mixed to bring the total volume up to 2.5 ml. The mixture was incubated at 37° C. for 20 minutes. Before the incubation, however, 1 ml aliquot was removed from 2.5 ml of the mixture mentioned above and extracted with 5 ml of methylene dichloride. After the incubation, the remaining 1.5 ml was extracted with 5 ml of methylene dichloride. The optical density of the two methylene dichloride solutions prepared before and after the incubation was measured by a spectrophotometer (Hitachi) at 240 mμ. Inhibition % of Δ^4 -5α and 5β-reductase activity was calculated from the difference in the optical density.

For data set [4], the system named is Δ^4 -5β-reductase for aldosterone in rat liver. Described as above. It is filed as biochemical. As to conditions: conclusion from reductase experiments. As for the experimental part:
as §1, §2, §3, §4, §5, §6, §7, §8, §9, §10, §11

The next data set concerns stress-induced ulcer. Put plainly: mice experiments on stress-induced ulcer (restraint plus water immersion). It is filed as in vivo, male ddY mice. As to conditions: for ulcer index: 200 mg/kg p.o. Here is the method: (a) Mice Experiments on stress-induced ulcer Experimental procedures:
Male ddY mice weighing about 20 g were made to fast for 18 hours. Water was given freely. Compounds to be tested were suspended in Tween 80 to prepare an aqueous suspension and administered orally. Immediately thereafter, the mice were subjected to restraint plus water immersion stress (25° C.) for 6 hours. Thereafter, the stomach was excised and fixed by formalin. The degree of ulcer was shown as a total of the length. The control group was given only the solvent.

For `CC1(C)[C@@H](O)CC[C@]2(C)[C@H]3CC=C4[C@@H]5C[C@@](C)(CO)CC[C@]5(C)CC[C@@]4(C)[C@]3(C)CC[C@@H]12` [I, olean-12-ene-3β, 30-diol], the “ulcer value (major axis × minor axis)” value in data set [1] (Experiment 1, 200 mg/kg (half dose twice/day), control 12.0 ± 2.3) is recorded as 10.1 ± 3.4; in data set [1] (Experiment 1, 400 mg/kg (half dose twice/day), control 12.0 ± 2.3), 7.5 ± 0.7; in data set [1] (Experiment 2, 200 mg/kg (half dose twice/day), control 8.9 ± 1.7), 6.7 ± 2.2; in data set [1] (Experiment 2, 400 mg/kg (half dose twice/day), control 8.9 ± 1.7), 5.2 ± 1.2; in data set [1] (Total, 200 mg/kg (half dose twice/day), control 10.4 ± 1.4), 8.4 ± 2.0; in data set [1] (Total, 400 mg/kg (half dose twice/day), control 10.4 ± 1.4, * p < 0.05), 6.2 ± 0.8. In addition, the “inhibitory effect on acetic acid ulcer (in words)” value in data set [1] (dose of 200 mg) is “showed an inhibitory effect to some extent”; in data set [1] (dose of 400 mg), “clearly showed inhibitory effects”. In addition, the healing rate entry in data set [1] (dose of 400 mg) is “more than 40%”. Moreover, the area in data set [2] (egg albumin 10 μg/0.1 ml, 100 mg/kg intraperitoneally, control 0) was 0 mm^2; in data set [2] (egg albumin 10 μg/0.1 ml, 200 mg/kg intraperitoneally, control 0), 0 mm^2; in data set [2] (egg albumin 100 μg/0.1 ml, 100 mg/kg intraperitoneally, control 110 ± 67), 98 ± 98 mm^2; in data set [2] (egg albumin 100 μg/0.1 ml, 200 mg/kg intraperitoneally, control 110 ± 67), 30 ± 30 mm^2; in data set [2] (egg albumin 1000 μg/0.1 ml, 100 mg/kg intraperitoneally, control 409 ± 130), 334 ± 174 mm^2; in data set [2] (egg albumin 1000 μg/0.1 ml, 200 mg/kg intraperitoneally, control 409 ± 130) it was 76 ± 62 mm^2. The “effect upon Δ^4 -5α-5β-reductase (in words), 5β” value in data set [3] was “no inhibitory activity”. Also, the “aldosterone-like action (in words)” value in data set [4] is given as “entirely devoid of aldosterone-like action”. Further, in the data set with stress-induced ulcer (200 mg/kg), the “inhibitory effect on stress-induced ulcer (in words)” value is recorded as “showed a stronger inhibitory effect than glycyrrhetinic acid (II)”. The ulcer index came to 2.94 ± 0.81 in the data set on stress-induced ulcer (1st experiment, control 5.63 ± 0.55); 2.19 ± 0.6 in the data set with stress-induced ulcer (2nd experiment, control 4.13 ± 0.8); 3.88 ± 0.79 in the data set on stress-induced ulcer (3rd experiment, control 6.00 ± 0.87); 1.89 ± 0.53 in the data set with stress-induced ulcer (4th experiment, control 4.20 ± 0.70). In addition, the “antiulcer effect compared with glycyrrhetinic acid (in words)” value in the data set on stress-induced ulcer (all antiulcer experiments (stress, aspirin, acetic acid)) was “shows superior effects to glycyrrhetinic acid in all the experiments”.
